Several values for one entry are separate records, joined by “and”; a condition that tells them apart may be missing. Equal entries are not always repeated.
Legend:
[1] = biological target: Endonuclease 8-like 1 (Homo sapiens) (UniProt Q96FI4); conditions: Hit No;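 note: fluorescence at 594 nm from quenched duplex DNA oligonucleotides released by NEIL1 cleavage and strand separation, reported as reduction of this enzyme activity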
Description: Inhibition of NEIL1 by quantifying inhibition of NEIL1-mediated cleavage and dissociation of quenched duplex DNA oligonucleotides, measured as fluorescence at 594 nm.

[2] = biological target: T1, Endonuclease 8-like 2 (Homo sapiens) (UniProt Q969S2); conditions: Hit No;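 note: fluorescence at 594 nm reports NEIL2 cutting and release of a quenched double-stranded DNA oligo substrate, reduced signal read as inhibition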
T1 sequence (whole entry): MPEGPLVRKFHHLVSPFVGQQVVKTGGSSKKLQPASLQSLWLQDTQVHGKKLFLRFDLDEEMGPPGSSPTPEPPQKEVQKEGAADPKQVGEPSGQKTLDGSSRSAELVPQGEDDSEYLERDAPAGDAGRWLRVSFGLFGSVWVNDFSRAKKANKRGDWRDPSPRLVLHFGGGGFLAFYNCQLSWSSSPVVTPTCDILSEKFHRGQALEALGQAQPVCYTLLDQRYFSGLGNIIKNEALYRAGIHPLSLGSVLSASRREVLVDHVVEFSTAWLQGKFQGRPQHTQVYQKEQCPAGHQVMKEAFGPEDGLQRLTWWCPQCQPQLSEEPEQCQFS
Description: Inhibition of NEIL2 by quantifying inhibition of NEIL2-mediated cleavage and dissociation of quenched duplex DNA oligonucleotides, measured as fluorescence at 594 nm.

[3] = biological target: T2, Endonuclease III-like protein 1 (Homo sapiens) (UniProt P78549); conditions: Hit No;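 note: enzyme assay tracking NTHL1 cutting and release of a quenched double-stranded DNA oligo substrate, read as fluorescence at 594 nm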
T2 sequence (whole entry): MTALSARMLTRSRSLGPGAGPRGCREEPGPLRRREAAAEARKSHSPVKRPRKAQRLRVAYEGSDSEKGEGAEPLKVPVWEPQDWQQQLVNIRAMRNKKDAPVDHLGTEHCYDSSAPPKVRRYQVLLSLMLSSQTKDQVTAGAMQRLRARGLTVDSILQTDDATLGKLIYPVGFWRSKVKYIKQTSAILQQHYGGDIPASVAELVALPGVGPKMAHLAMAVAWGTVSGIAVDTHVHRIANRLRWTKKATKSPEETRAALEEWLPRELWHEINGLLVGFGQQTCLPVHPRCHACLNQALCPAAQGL
Description: Inhibition of NTHL1 by quantifying inhibition of NTHL1-mediated cleavage and dissociation of quenched duplex DNA oligonucleotides, measured as fluorescence at 594 nm.

[4] = biological target: N-glycosylase/DNA lyase (Homo sapiens) (UniProt O15527); conditions: Hit No;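 note: OGG1 cleavage of a quenched duplex DNA oligonucleotide, coupled to APE1 for strand incision, read as fluorescence at 594 nm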
Chain of N-glycosylase/DNA lyase (Homo sapiens) (O15527 whole entry): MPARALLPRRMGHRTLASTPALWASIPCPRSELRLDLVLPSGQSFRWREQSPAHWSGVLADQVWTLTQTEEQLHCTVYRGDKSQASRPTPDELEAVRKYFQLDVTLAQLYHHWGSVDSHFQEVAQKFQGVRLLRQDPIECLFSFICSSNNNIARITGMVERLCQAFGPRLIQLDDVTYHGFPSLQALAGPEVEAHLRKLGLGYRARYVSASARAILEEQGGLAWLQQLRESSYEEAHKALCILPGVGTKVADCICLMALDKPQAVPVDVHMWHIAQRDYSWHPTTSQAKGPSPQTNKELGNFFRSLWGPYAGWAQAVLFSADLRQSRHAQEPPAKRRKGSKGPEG
Description: Inhibition of OGG1 by quantifying inhibition of OGG1-mediated cleavage and dissociation of quenched duplex DNA oligonucleotides, measured as fluorescence at 594 nm. To generate a functional strand incision and increase turn-over this assay is coupled to APE1.

[5] = biological target: T3, Single-strand selective monofunctional uracil DNA glycosylase (Homo sapiens) (UniProt Q53HV7); conditions: Hit No;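 note: enzymatic SMUG1 assay coupled with APE1, reading fluorescence at 594 nm released when a quenched double-stranded DNA oligonucleotide substrate is cleaved and separated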
T3 sequence (whole entry): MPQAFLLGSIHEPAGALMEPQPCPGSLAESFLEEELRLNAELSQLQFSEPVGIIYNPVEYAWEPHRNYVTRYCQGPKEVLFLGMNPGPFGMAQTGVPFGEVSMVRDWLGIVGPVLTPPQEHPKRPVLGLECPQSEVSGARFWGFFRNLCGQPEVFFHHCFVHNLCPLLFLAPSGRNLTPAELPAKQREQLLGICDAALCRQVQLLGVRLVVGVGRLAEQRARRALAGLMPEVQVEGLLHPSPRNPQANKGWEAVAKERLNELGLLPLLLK
Description: Inhibition of SMUG1 by quantifying inhibition of SMUG1-mediated cleavage and dissociation of quenched duplex DNA oligonucleotides, measured as fluorescence at 594 nm. To generate a functional strand incision and increase turn-over this assay is coupled to APE1.

[6] = biological target: G/T mismatch-specific thymine DNA glycosylase (Homo sapiens) (UniProt Q13569); conditions: Compound Concentration 10.0 uM, Hit No;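 note: human TDG cleavage of quenched duplex DNA oligonucleotides coupled to APE1, strand release read as fluorescence at 594 nm, inhibition of TDG activity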
Chain of G/T mismatch-specific thymine DNA glycosylase (Homo sapiens) (Q13569 whole entry): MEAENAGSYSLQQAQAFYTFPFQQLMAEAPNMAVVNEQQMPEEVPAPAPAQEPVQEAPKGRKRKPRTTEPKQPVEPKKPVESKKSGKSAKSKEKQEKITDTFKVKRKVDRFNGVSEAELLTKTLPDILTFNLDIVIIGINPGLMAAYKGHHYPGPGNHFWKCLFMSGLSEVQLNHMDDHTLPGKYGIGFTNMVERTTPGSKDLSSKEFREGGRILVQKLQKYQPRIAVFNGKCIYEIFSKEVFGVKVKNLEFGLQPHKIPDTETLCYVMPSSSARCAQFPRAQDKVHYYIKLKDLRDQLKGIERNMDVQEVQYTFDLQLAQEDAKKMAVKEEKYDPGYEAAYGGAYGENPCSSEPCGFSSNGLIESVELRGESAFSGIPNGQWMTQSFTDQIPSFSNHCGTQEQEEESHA
Description: Inhibition of TDG by quantifying inhibition of TDG-mediated cleavage and dissociation of quenched duplex DNA oligonucleotides, measured as fluorescence at 594 nm. To generate a functional strand incision and increase turn-over this assay is coupled to APE1.

[7] = biological target: Uracil-DNA glycosylase (Homo sapiens) (UniProt P13051); conditions: Hit No;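 note: UNG excision on a quenched double-stranded DNA oligo probe, with APE1 added for strand incision and turnover, read as fluorescence at 594 nm as strands separate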
Chain of Uracil-DNA glycosylase (Homo sapiens) (P13051 whole entry): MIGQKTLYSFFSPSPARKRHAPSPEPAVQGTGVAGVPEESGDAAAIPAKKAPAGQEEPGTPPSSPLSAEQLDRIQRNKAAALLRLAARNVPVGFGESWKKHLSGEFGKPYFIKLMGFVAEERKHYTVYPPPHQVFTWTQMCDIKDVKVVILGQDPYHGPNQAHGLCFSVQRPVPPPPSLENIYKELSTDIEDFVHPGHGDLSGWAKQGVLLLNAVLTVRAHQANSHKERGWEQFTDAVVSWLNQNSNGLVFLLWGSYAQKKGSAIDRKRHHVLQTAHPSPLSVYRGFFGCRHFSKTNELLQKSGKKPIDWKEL
Description: Inhibition of UNG by quantifying inhibition of UNG-mediated cleavage and dissociation of quenched duplex DNA oligonucleotides, measured as fluorescence at 594 nm. To generate a functional strand incision and increase turn-over this assay is coupled to APE1.

Chain of Endonuclease 8-like 1 (Homo sapiens) (Q96FI4 whole entry): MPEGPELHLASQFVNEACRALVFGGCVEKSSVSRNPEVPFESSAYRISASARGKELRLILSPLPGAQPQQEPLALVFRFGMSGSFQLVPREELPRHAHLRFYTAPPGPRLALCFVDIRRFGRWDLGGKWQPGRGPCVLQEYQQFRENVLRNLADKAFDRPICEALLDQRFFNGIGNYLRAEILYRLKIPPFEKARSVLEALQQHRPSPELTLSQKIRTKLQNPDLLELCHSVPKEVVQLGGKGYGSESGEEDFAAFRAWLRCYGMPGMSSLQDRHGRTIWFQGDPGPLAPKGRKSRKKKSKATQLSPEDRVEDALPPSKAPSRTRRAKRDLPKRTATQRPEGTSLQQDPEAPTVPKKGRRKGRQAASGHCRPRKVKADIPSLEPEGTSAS

| SMILES | inhibition ([1]; Compound Concentration 10.0 uM) | inhibition ([2]; Compound Concentration 10.0 uM) | inhibition ([3]; Compound Concentration 10.0 uM) [%] | inhibition ([4]; Compound Concentration 10.0 uM) | inhibition ([5]; Compound Concentration 10.0 uM) [%] | inhibition [6] [%] | inhibition ([7]; Compound Concentration 10.0 uM) | inhibition ([1]; Compound Concentration 1.0 uM) [%] | inhibition ([2]; Compound Concentration 1.0 uM) [%] | inhibition ([3]; Compound Concentration 1.0 uM) [%] | inhibition ([4]; Compound Concentration 1.0 uM) [%] | inhibition ([5]; Compound Concentration 1.0 uM) [%] | inhibition ([7]; Compound Concentration 1.0 uM) [%] |
| --- | --- | --- | --- | --- | --- | --- | --- | --- | --- | --- | --- | --- | --- |
| COc1ncc(F)cc1CNc1ccc(Cc2c[nH]c3ncc(C)cc23)c(F)n1 | 1.33% | 2.39% | -7.58 | 5.69% | 18.6 | 37.9 | 6.92% |  |  |  |  |  |  |
| C[C@H](Cc1cc2c(c(C(N)=O)c1)N(CCCO)CC2)NCCOc1ccccc1OCC(F)(F)F | -4.21% | -1.48% | -1.01 | -6.28% | 1.13 | 2.34 | -9.87% |  |  |  |  |  |  |
| Cc1c(P(=S)(c2ccccc2)c2ccccc2)n2ccccc2[n+]1C/C=C/c1ccccc1 | 11.1% | -6.97% | 23.9 | 1.08% | -6.48 | 35.9 | -7.24% |  |  |  |  |  |  |
| OCCN1CCN(CCCN2c3ccccc3Sc3ccc(Cl)cc32)CC1 | 17.1% | 12.5% | 3.39 | -8.6% | -0.808 | 3.7 | -5.33% |  |  |  |  |  |  |
| CN1C[C@H](C(=O)N[C@]2(C)O[C@@]3(O)[C@@H]4CCCN4C(=O)[C@H](Cc4ccccc4)N3C2=O)C[C@@H]2c3cccc4[nH]cc(c34)C[C@H]21 | 9.88% | 7% | 15.8 | -8.52% | 0.306 | 7.37 | -3.4% |  |  |  |  |  |  |
| OC1(c2ccc(Cl)cc2)CCN(Cc2c[nH]c3ccccc23)CC1 | -5.1% | 5.51% | 7.05 | -9.04% | -1.92 | 17.2 | -8.06% |  |  |  |  |  |  |
| CN(C(=O)Cc1ccc(Cl)c(Cl)c1)C(CN1CCCC1)c1cccc(OCC(=O)O)c1 (stereo unspecified) | -0.5% | -9.22% | 13.7 | -6.71% | -2.65 | -1.52 | -7.78% |  |  |  |  |  |  |
| O=C1O[C@]2(CC[C@H](C(=O)Nc3ccn(-c4ccccc4F)n3)CC2)c2cnccc21 | -8.51% | -7.47% | -1.74 | -9.12% | 3.16 | 1.4 | -8.76% |  |  |  |  |  |  |
| CC(=O)c1ccc2c(c1)[C@@H]1C=CC[C@@H]1[C@H](c1cc3c(cc1Br)OCO3)N2 | 1.72% | 9.25% | 11.4 | 2.12% | 5.25 | 13.5 | -3.58% |  |  |  |  |  |  |
| COc1ccc(NS(=O)(=O)c2sc3ccc(Cl)cc3c2C)cc1N1CCNCC1 | 16% | 1.51% | -3.94 | -6.55% | 12 | 18 | -3.02% |  |  |  |  |  |  |
| Cn1cc(C2=C(c3cn(C4CCN(Cc5ccccn5)CC4)c4ccccc34)C(=O)NC2=O)c2ccccc21 |  |  |  |  |  |  |  | -7.52 | -6.23 | 2.88 | -2.56 | 6.08 | -3.81 |
| S=C(NCCCc1c[nH]cn1)NCCCN(Cc1ccc(Cl)c(Cl)c1)c1ccc(Br)cn1 | -8.51% and -1.24% | -7.72% and 0.265% | 7.05 | -8.08% and 0.522% | 0.354 | -1.74 | -7.82% and -8.52% |  |  |  |  |  |  |
| N#Cc1ccc(Cn2ccc(NC(=O)Cc3ccc(C4(C(F)(F)F)CC4)cc3)n2)nc1 | 4.9% | -3.66% | 17.1 | -2.87% | -0.24 | -8.44 | -0.478% |  |  |  |  |  |  |
| CN(c1ncccc1CNc1ccnc(-c2nc3c(F)c(Cl)ccc3[nH]2)n1)S(C)(=O)=O | 1.59% | -8.38% | 9.15 | -6.69% | 9.82 | 35.5 | -1.37% |  |  |  |  |  |  |
| Cc1onc(O)c1CC(N)C(=O)O (stereo unspecified) | -4.58% | -2.64% | -3.56 | -2.69% | -3.23 | 5.29 | -3.91% |  |  |  |  |  |  |
| CC(C)(C)c1cc(C(C)(C)C)c(NC(=O)c2c[nH]c3ccccc3c2=O)cc1O | 1.34% | 5.25% | 14.6 | -6.32% | 6.2 |  | 1.6% |  |  |  |  |  |  |

| SMILES | inhibition ([1]; Compound Concentration 10.0 uM) | inhibition ([2]; Compound Concentration 10.0 uM) | inhibition ([3]; Compound Concentration 10.0 uM) [%] | inhibition ([4]; Compound Concentration 10.0 uM) | inhibition ([5]; Compound Concentration 10.0 uM) [%] | inhibition [6] [%] | inhibition ([7]; Compound Concentration 10.0 uM) | inhibition ([1]; Compound Concentration 1.0 uM) [%] | inhibition ([2]; Compound Concentration 1.0 uM) [%] | inhibition ([3]; Compound Concentration 1.0 uM) [%] | inhibition ([4]; Compound Concentration 1.0 uM) [%] | inhibition ([5]; Compound Concentration 1.0 uM) [%] | inhibition ([7]; Compound Concentration 1.0 uM) [%] |
| --- | --- | --- | --- | --- | --- | --- | --- | --- | --- | --- | --- | --- | --- |
| CN(C)S(=O)(=O)c1ccc(NC(=S)N2CCC(C(O)(c3ccccc3)c3ccccc3)CC2)cc1 | -0.797% | 0.265% | 16.6 | -3.65% | 3.26 | -1.66 | -7.47% |  |  |  |  |  |  |
| NCCc1cn(S(=O)(=O)c2c(Cl)nc3sccn23)c2ccccc12 | 6.53% | -1.62% | -1.91 | 16.8% | 3.77 |  | -2.77% |  |  |  |  |  |  |
| CCNC1(C(N)=O)CCN(c2ncnc3c2nc(-c2ccccc2Cl)n3-c2ccc(Cl)cc2)CC1 | 1.13% | 3.76% | 17.3 | -3.75% | 12.2 | 11.7 | -6.19% |  |  |  |  |  |  |
| CC[C@@H]1CN(C(=O)NCC(F)(F)F)C[C@@H]1c1cnc2cnc3[nH]ccc3n12 | 4.1% |  | 2.88 | 0.361% | 20.8 | 36.4 | 1.27% |  |  |  |  |  |  |
| O=c1c2cccn2c2ccccc2n1CCCN1CCC(c2ccc(Cl)cc2)CC1 | 10.5% | 7.75% | 6.32 | -2.48% | 5.73 | 2.78 | -8.09% |  |  |  |  |  |  |
| O=C(N[C@H](Cc1ccc(Cl)cc1)C(=O)N1CCC(Cn2cncn2)(C2CCCCC2)CC1)[C@H]1Cc2ccccc2CN1 | 5.49% | 0.159% | -6.04 | 6.85% | 10.8 |  | -1.71% |  |  |  |  |  |  |
| NCCCNCCCCNCCC(=O)NCCCCCNC(=O)[C@H](CC(N)=O)NC(=O)Cc1ccc(O)cc1O | 0.898% | -3.66% | -0.258 | 0.0747% | -7.3 |  | -1.11% |  |  |  |  |  |  |
| CN(C)C(=O)C(CCN1CCC(O)(c2ccc(Cl)cc2)CC1)(c1ccccc1)c1ccccc1 | 7.8% | 7.75% | 28.3 | -5.28% | -1.44 | 5.3 | -5.39% |  |  |  |  |  |  |
| C[C@@H](O[C@H]1OCCN(Cc2n[nH]c(=O)[nH]2)[C@H]1c1ccc(F)cc1)c1cc(C(F)(F)F)cc(C(F)(F)F)c1 | 5.88% | 8.5% | -1.01 | -7.13% | -5.17 | 0.716 | -3.75% |  |  |  |  |  |  |
| O=C(Nc1ccc(-n2nc(C(F)(F)F)cc2C(F)(F)F)cc1)c1ccncc1F | 3.86% | -8.25% | -4.39 | -5.81% | -4.65 |  | -0.503% |  |  |  |  |  |  |
| COCC(=O)NC/C=C/c1ccc2ncnc(Nc3ccc(Oc4ccc(C)nc4)c(C)c3)c2c1 | -8.05% |  | 1.48 | 5.64% | 21.7 | 11.2 | 9.27% |  |  |  |  |  |  |
| N=C(N)NCCC[C@@H](NC(=O)C(c1ccccc1)c1ccccc1)C(=O)NCc1ccc(CNC(N)=O)cc1 | 11.1% | -2.13% | 11.3 | -4.9% | 0.0989 |  | -1.81% |  |  |  |  |  |  |
| CC(C)Oc1ccc(-c2nn([C@@H](C)c3oc4ccc(F)cc4c(=O)c3-c3cccc(F)c3)c3ncnc(N)c23)cc1F | -4.09% |  | 8.46 | 8.77% | 23.6 | 80.6 | 6.08% |  |  |  |  |  |  |
| COc1cc(Nc2nccc(-c3cnn4nc(OC)ccc34)n2)cc(C(F)(F)F)c1 | 11.1% | -0.842% | 0.785 | 8.51% | 1.75 | 8.41 | -0.0969% |  |  |  |  |  |  |
| O=C(Nc1ccc(Cl)cc1)Nc1cccc(-c2cccc(N3CCCC3)n2)c1 | 8.84% | -4.23% | -0.275 | -1.14% | -0.712 |  | -9.34% |  |  |  |  |  |  |
